Laboratory results reported in US20140288074A1, “FUNGICIDAL PYRAZOLES” (E I DU PONT DE NEMOURS AND COMPANY, priority 2013, published 2014).

Columns and labels:
Format in all cases: in vivo
Botrytis cinerea = experiment: Test A: preventive spray on tomato seedlings, tomato Botrytis, visual disease rating; settings: 200 ppm test suspension, Botrytis cinerea inoculated the day after spraying; for pest or weed control at 200 ppm: 120 h
Method: General protocol for preparing test suspensions for Tests A-G: the test compounds were first dissolved in acetone in an amount equal to 3% of the final volume and then suspended at the desired concentration (in ppm) in acetone and purified water (50/50 mix by volume) containing 250 ppm of the surfactant Trem® 014 (polyhydric alcohol esters). The resulting test suspensions were then used in Tests A-G. Each test was conducted in triplicate, and the results were averaged. Spraying a 200 ppm test suspension to the point of run-off on the test plants was the equivalent of a rate of 800 g/ha. Unless otherwise indicated, the rating values indicate a 200 ppm test suspension was used. (An asterisk “*” next to the rating value indicates a 40 ppm test suspension was used.) The test suspension was sprayed to the point of run-off on tomato seedlings. The following day the seedlings were inoculated with a spore suspension of Botrytis cinerea (the causal agent of tomato Botrytis) and incubated in saturated atmosphere at 20° C. for 48 h, and then moved to a growth chamber at 24° C. for 3 additional days, after which time visual disease ratings were made. Results for Tests A-G are given in Table A. In the Table, a rating of 100 indicates 100% disease control and a rating of 0 indicates no disease control (relative to the controls). A hyphen (-) indicates no test results.

Septoria nodorum = experiment: Test C: preventive spray on wheat seedlings, Septoria glume blotch, visual disease rating; settings: 200 ppm test suspension, Septoria nodorum inoculated the day after spraying; for pest or weed control at 200 ppm: Parastagonospora nodorum, 264 h
Method: General protocol for preparing test suspensions for Tests A-G: the test compounds were first dissolved in acetone in an amount equal to 3% of the final volume and then suspended at the desired concentration (in ppm) in acetone and purified water (50/50 mix by volume) containing 250 ppm of the surfactant Trem® 014 (polyhydric alcohol esters). The resulting test suspensions were then used in Tests A-G. Each test was conducted in triplicate, and the results were averaged. Spraying a 200 ppm test suspension to the point of run-off on the test plants was the equivalent of a rate of 800 g/ha. Unless otherwise indicated, the rating values indicate a 200 ppm test suspension was used. (An asterisk “*” next to the rating value indicates a 40 ppm test suspension was used.) The test suspension was sprayed to the point of run-off on wheat seedlings. The following day the seedlings were inoculated with a spore suspension of Septoria nodorum (the causal agent of Septoria glume blotch) and incubated in a saturated atmosphere at 24° C. for 48 h, and then moved to a growth chamber at 20° C. for 9 days, after which time visual disease ratings were made. Results for Tests A-G are given in Table A. In the Table, a rating of 100 indicates 100% disease control and a rating of 0 indicates no disease control (relative to the controls). A hyphen (-) indicates no test results.

Septoria tritici = experiment: Test D: preventive spray on wheat seedlings, wheat leaf blotch, visual disease rating; settings: 200 ppm test suspension, Septoria tritici inoculated the day after spraying; for pest or weed control at 200 ppm: Zymoseptoria tritici, 504 h
Method: General protocol for preparing test suspensions for Tests A-G: the test compounds were first dissolved in acetone in an amount equal to 3% of the final volume and then suspended at the desired concentration (in ppm) in acetone and purified water (50/50 mix by volume) containing 250 ppm of the surfactant Trem® 014 (polyhydric alcohol esters). The resulting test suspensions were then used in Tests A-G. Each test was conducted in triplicate, and the results were averaged. Spraying a 200 ppm test suspension to the point of run-off on the test plants was the equivalent of a rate of 800 g/ha. Unless otherwise indicated, the rating values indicate a 200 ppm test suspension was used. (An asterisk “*” next to the rating value indicates a 40 ppm test suspension was used.) The test suspension was sprayed to the point of run-off on wheat seedlings. The following day the seedlings were inoculated with a spore suspension of Septoria tritici (the causal agent of wheat leaf blotch) and incubated in saturated atmosphere at 24° C. for 48 h. and then the seedlings were moved to a growth chamber at 20° C. for 19 additional days, after which time visual disease ratings were made. Results for Tests A-G are given in Table A. In the Table, a rating of 100 indicates 100% disease control and a rating of 0 indicates no disease control (relative to the controls). A hyphen (-) indicates no test results.

[1] = test system: Puccinia recondita f. sp. tritici; experiment: Test F: preventive spray on wheat seedlings, wheat leaf rust, visual disease rating; settings: 200 ppm test suspension, Puccinia recondita f. sp. tritici inoculated the day after spraying; for pest or weed control at 200 ppm: 168 h
Method: General protocol for preparing test suspensions for Tests A-G: the test compounds were first dissolved in acetone in an amount equal to 3% of the final volume and then suspended at the desired concentration (in ppm) in acetone and purified water (50/50 mix by volume) containing 250 ppm of the surfactant Trem® 014 (polyhydric alcohol esters). The resulting test suspensions were then used in Tests A-G. Each test was conducted in triplicate, and the results were averaged. Spraying a 200 ppm test suspension to the point of run-off on the test plants was the equivalent of a rate of 800 g/ha. Unless otherwise indicated, the rating values indicate a 200 ppm test suspension was used. (An asterisk “*” next to the rating value indicates a 40 ppm test suspension was used.) The test suspension was sprayed to the point of run-off on wheat seedlings. The following day the seedlings were inoculated with a spore suspension of Puccinia recondita f. sp. tritici (the causal agent of wheat leaf rust) and incubated in a saturated atmosphere at 20° C. for 24 h, and then moved to a growth chamber at 20° C. for 6 days, after which time visual disease ratings were made. Results for Tests A-G are given in Table A. In the Table, a rating of 100 indicates 100% disease control and a rating of 0 indicates no disease control (relative to the controls). A hyphen (-) indicates no test results.

[2] = test system: Blumeria graminis f. sp. tritici; experiment: Test G: preventive spray on wheat seedlings, wheat powdery mildew, visual disease rating;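 for all read-outs here: rated 8 days after spore dust inoculation at 20 °C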; settings: 200 ppm test suspension, Blumeria graminis f. sp. tritici inoculated the day after spraying; for pest or weed control at 200 ppm: 192 h
Method: General protocol for preparing test suspensions for Tests A-G: the test compounds were first dissolved in acetone in an amount equal to 3% of the final volume and then suspended at the desired concentration (in ppm) in acetone and purified water (50/50 mix by volume) containing 250 ppm of the surfactant Trem® 014 (polyhydric alcohol esters). The resulting test suspensions were then used in Tests A-G. Each test was conducted in triplicate, and the results were averaged. Spraying a 200 ppm test suspension to the point of run-off on the test plants was the equivalent of a rate of 800 g/ha. Unless otherwise indicated, the rating values indicate a 200 ppm test suspension was used. (An asterisk “*” next to the rating value indicates a 40 ppm test suspension was used.) The test suspension was sprayed to the point of run-off on wheat seedlings. The following day the seedlings were inoculated with a spore dust of Blumeria graminis f. sp. tritici (also known as Erysiphe graminis f. sp. tritici, the causal agent of wheat powdery mildew) and incubated in a growth chamber at 20° C. for 8 days, after which time visual disease ratings were made. Results for Tests A-G are given in Table A. In the Table, a rating of 100 indicates 100% disease control and a rating of 0 indicates no disease control (relative to the controls). A hyphen (-) indicates no test results.

Row | Compound | Test A rating (disease control) (Botrytis cinerea) [%] | Test C rating (disease control) (Septoria nodorum) [%] | Test D rating (disease control) (Septoria tritici) [%] | Test F rating (disease control) [1] [%] | Test G rating (disease control) [2] [%] | pest or weed control at 200 ppm (Botrytis cinerea) [%] | pest or weed control at 200 ppm (Septoria nodorum) [%] | pest or weed control at 200 ppm (Septoria tritici) [%] | pest or weed control at 200 ppm [1] [%] | pest or weed control at 200 ppm [2] [%]
1 | 4-(2-chloro-6-fluorophenyl)-N,1,3-trimethyl-α-(1-methylpropyl)-1H-pyrazole-5-methanamine [Compound 34] | 0 | 99 | 12 | 90 | 0 |  |  |  |  | 
2 | Cc1nn(C)c(OCC(C)C)c1-c1c(F)cc(F)cc1F [Compound 22, 1,3-dimethyl-5-(2-methylpropoxy)-4-(2,4,6-trifluorophenyl)-1H-pyrazole] |  |  |  |  |  | 0 | 0 | 0 | 17 | 0
3 | CCC(C)COc1c(-c2ccc(F)cc2Br)c(C)nn1C (centres unmarked) [Compound 23, 4-(2-bromo-4-fluorophenyl)-1,3-dimethyl-5-(2-methylbutoxy)-1H-pyrazole] |  |  |  |  |  | 70 | 0 | 95 | 9 | 0
4 | Cc1nn(C)c(C(O)C(C)C)c1-c1c(F)cccc1Cl (stereo not drawn) [Compound 24, 4-(2-chloro-6-fluorophenyl)-1,3-dimethyl-α-(1-methylethyl)-1H-pyrazole-5-methanol] |  |  |  |  |  | 99 | 98 | 91 | 99 | 97
5 | CNC(c1c(-c2c(F)cccc2Cl)c(C)nn1C)C(C)C (stereo not drawn) [Compound 25, 4-(2-chloro-6-fluorophenyl)-N,1,3-trimethyl-α-(1-methylethyl)-1H-pyrazole-5-methanamine] |  |  |  |  |  | 0 | 100 | 25 | 99 | 99
6 | CSC(c1c(-c2c(F)cccc2Cl)c(C)nn1C)C(C)C (centres unmarked) [Compound 26, 4-(2-chloro-6-fluorophenyl)-1,3-dimethyl-5-[2-methyl-1-(methylthio)propyl]-1H-pyrazole] |  |  |  |  |  | 0 | 99 | 3 | 98 | 0
7 | Cc1nn(C)c(OCC2CC2)c1-c1ccc(F)cc1Cl [Compound 27, 4-(2-chloro-4-fluorophenyl)-5-(cyclopropylmethoxy)-1,3-dimethyl-1H-pyrazole] |  |  |  |  |  | 99 | 69 | 100 | 9 | 0
8 | Cc1nn(C)c(OC2CCCCC2)c1-c1ccc(F)cc1Cl [Compound 28, 4-(2-chloro-4-fluorophenyl)-5-(cyclohexyloxy)-1,3-dimethyl-1H-pyrazole] |  |  |  |  |  | 95 | 0 | 100 | 58 | 73
9 | Cc1nn(C)c(OCC(C)C)c1-c1ccc(F)cc1Cl [Compound 29] | 0 | 100 | 63 | 99 | 0 |  |  |  |  | 
10 | COCCOc1c(-c2ccc(F)cc2Cl)c(C)nn1C [Compound 30, 4-(2-chloro-4-fluorophenyl)-5-(2-methoxyethoxy)-1,3-dimethyl-1H-pyrazole] |  |  |  |  |  | 91 | 0 | 85 | 58 | 0
11 | Cc1nn(C)c(OC(C)C)c1-c1ccc(F)cc1Cl [Compound 31] | 0 | 0 | 0 | 22 | 0 |  |  |  |  | 
12 | Cc1nn(C)c(C(N)C(C)C)c1-c1c(F)cccc1Cl (centres unmarked) [Compound 32] | 0 | 100 | 94 | 96 | 0 |  |  |  |  | 
13 | CCC(C)C(N)c1c(-c2c(F)cccc2Cl)c(C)nn1C (stereo not drawn) [Compound 33, 4-(2-chloro-6-fluorophenyl)-1,3-dimethyl-α-(1-methylpropyl)-1H-pyrazole-5-methanamine] |  |  |  |  |  | 90 | 98 | 92 | 80 | 56
14 | CCC(C)C(SC)c1c(-c2c(F)cccc2Cl)c(C)nn1C (centres unmarked) [Compound 35, 4-(2-chloro-6-fluorophenyl)-1,3-dimethyl-5-[2-methyl-1-(methylthio)butyl]-1H-pyrazole] |  |  |  |  |  | 0 | 0 |  | 0 | 69
15 | COCCN(CCOC)c1c(-c2c(F)cc(F)cc2F)c(C)nn1C [Compound 51] | 82 | 100 |  | 99 | 55 |  |  |  |  | 
16 | Cc1nn(C)c(NCC(C)C)c1-c1c(F)cc(F)cc1F [Compound 53] | 95 | 100 |  | 100 | 81 |  |  |  |  | 
